Data published in patent US9808434B2, “Compound for treating cancer and diabetes” (CITY OF HOPE, priority 2011, dated 2017).

Experiments:
[1] = test system: Stat3, HIF-1α; test: Stat3 phosphorylation and HIF-1α expression in SKOV3, immunoblotting; format: cell-based, human; details: SKOV3, 24 hours, 1-10 μM
Procedure: SKOV3 cells were incubated with various concentrations of COH-SR4 (1˜10 μM) for 24 hours. Whole-cell lysates were analyzed by immunoblotting with antibodies against phosphorylated and total form of Stat3, Akt and MAPK, and HIF-1α. GAPDH was used as a loading control.

[2] = test system: U87; test: Glioma ATP viability assay, U87; format: cell-based; details: Homo sapiens, U-87 MG; Table 1; 72 hours
Procedure: (§1) Cells of each cell line (U251, U87, PBT-017, PBT018, PBT003 and PBT028) were treated with various concentrations (0˜100 μM) of COH-SR4 for 72 hours. Cell viabilities were determined by ATP viability assays. Data were represented as a ratio to vehicle (DMSO) control, and plotted as mean±SEM (n=12) obtained from 2˜3 experiments (FIG. 34A).
as §1, with “(U87, U251,” for “(U251, U87, PBT-017, PBT018,”, “PVT-017)” for “PBT028)”, “2-3” for “2˜3”, “34B).” for “34A).”

[3] = test system: HIF-1α; test: HIF-1α protein expression in U251, immunoblotting; format: cell-based; details: U251, 1-10 μM
Procedure: U251 cells were incubated with various concentrations of COH-SR4 (1˜10 μM). Whole-cell lysates were analyzed by immunoblotting with antibodies against HIF-1α. GAPDH was used as a loading control.

[4] = target: T1, GSTP (Homo sapiens, UniProt P09211); test: GSTP activity towards CDNB in the presence of GSR4; format: biochemical; details: activity towards CDNB; read-out: estimated Ki (product inhibitor of GSTP)
T1 construct: made in house; host or cells: E. coli BL21 (DE3)
T1 sequence (P09211 whole entry): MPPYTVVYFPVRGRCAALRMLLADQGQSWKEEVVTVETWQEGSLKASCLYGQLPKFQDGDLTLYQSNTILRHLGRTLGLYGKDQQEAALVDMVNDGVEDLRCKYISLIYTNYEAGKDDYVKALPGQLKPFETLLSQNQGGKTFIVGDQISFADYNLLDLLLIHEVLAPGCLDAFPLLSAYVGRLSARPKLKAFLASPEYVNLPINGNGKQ
Procedure: Furthermore, GSTP activities towards CDNB were assessed in the presence of various concentration of GSR4. The GSTP activities decreased when the concentration of GSR4 increased (Table 3). Thus, […] was a product inhibitor of GSTP with an estimated Ki of less than 5 μM.

[5] = test system: SK-Mel-2; test: Colony formation assay, SK-Mel-2; format: cell-based, human; details: 5 μM
Procedure: (§2) Cell survival was evaluated using a standard colony-forming assay. In total, 1×10^5 cells/mL were incubated with COH-SR4 (1.5 μM or 5 μM) or elesclomol (5 μM) for 24 h, and aliquots of 50 or 100 μL were added to 60 mm size petri dishes, containing 4 mL culture medium. After 7 or 10 days, adherent colonies were fixed, stained with 0.5% methylene blue for 30 min and colonies were counted using the Innotech Alpha Imager HP (91).

[6] = test system: NHDF; test: Colony formation assay, NHDF; format: cell-based, human; details: FIG. 67B, 5 μM, vs untreated control
Procedure: as §2

[7] = test system: H1618; test: Colony formation assay, H1618; format: cell-based, human; details: 1.5 μM
Procedure: as §2
The effect of COH-SR4 was first examined in a NCI panel of cancer cell lines, the results of which indicated good activity of COH-SR4 towards lung cancer (FIG. 78A). […] Values are presented as mean±SD from two separate determinations with eight replicates each (n=16) (FIG. 78B). The COH-SR4 treatment exerted a significant inhibitory effect on the survival of lung cancer cells [IC50: H1417 cells-1.2±0.2 μM, H1618 cells-1.5±0.2 μM, H358 cells-2.1±0.2 μM and H520 cells-2.4±0.3 μM]. […] Following initial screening for the anticancer activity of COH-SR4, the effect of COH-SR4 on clonogenic potential was studied. Standard colony-forming assay was performed and the colonies were counted using Innotech Alpha Imager HP. […] The effect of COH-SR4 on induction of apoptosis was further investigated. […] TUNEL assay was performed using Promega fluorescence detection kit and examined using Zeiss LSM 510 META laser-scanning fluorescence microscope with filters 520 and 620 nm. […]

[8] = test system: GST; test: GST activity towards CDNB in lung cancer cell supernatants; format: biochemical, human; details: H1417, H1618, H520, H358 supernatants; 1 mM GSH and CDNB
Procedure: In the context of the elevation of GSTs in lung cancer, the impact of COH-SR4 on the catalytic activity of GSTs towards 1-chloro 2,4-dinitro benzene (CDNB), a model substrate used for GST activity was analyzed. GST activity towards 1-chloro 2,4-dinitro benzene (CDNB) and its inhibition by COH-SR4 was performed in 28000×g crude supernatant prepared from H1417, H1618, H520 and H358 cells. The inhibitory effect of COH-SR4 on GST was studied at a fixed concentration of GSH and CDNB (1 mM each) and varying concentrations of inhibitor. The enzymes were pre-incubated with the inhibitor for 5 min at 37° C. prior to the addition of the substrates. The experiment was repeated three times and similar results were obtained. […] Human liver purified GST was used as a control (FIG. 79B, inset). GSTs are a class of phase II detoxifying enzymes, which regulate detoxification of administered chemotherapy drugs for further efflux out of cells by transport proteins. The GST inhibition leads to accumulation of toxic end-products of lipid peroxidation due to decreased efflux of GS-HNE which also reinforces the GST inhibition by feedback inhibition. The over-expression of GSTs is a common phenomenon associated with malignant progression of many cancers including lung cancer, melanomas skin and prostate cancers. […]

[9] = test system: HepG2 liver carcinoma cells; test: Intracellular AMP:ATP ratio in HepG2; format: cell-based, human; details: 5 μM, 1 h
Procedure: ATP production from cells treated with test compounds were measured using the Luminescent ATP Detection Assay Kit. AMP, ATP and ADP were measured by UV-HPLC.
Total intracellular ATP production in cells treated with either 5 μM COH-SR4 or 5 μM FCCP was measured by bioluminescence assay and expressed as percentage of time-matched vehicle (DMSO) control (FIG. 84A). Intracellular AMP: ATP ratios increased in HepG2 liver carcinoma cells following 1 h treatment with either 5 μM COH-SR4 or 5 μM FCCP (FIG. 84B) and in liver of db/db mice treated with COH-SR4 (5 mg/kg B.W.) for 5 weeks (FIG. 84C). All data represented are mean±SEM, *P<0.05.

O=C(Nc1cc(Cl)cc(Cl)c1)Nc1cc(Cl)cc(Cl)c1 [COH-SR4, 1,3-bis(3,5-dichlorophenyl) urea]
phosphorylation of Stat3 and HIF-1α protein expression [1]: inhibited phosphorylation of Stat3 protein and HIF-1α protein expression
IC50 [2]: 2800 nM
HIF-1α protein expression [3]: inhibited HIF-1α protein expression
Ki [4]: < 5000 nM
colony formation [5]: 48±6%
colony forming potential [6]: 97±3%
colony formation [7]: 48±9%
total GST activity towards CDNB [8]: inhibited the total GST activity to a significant extent
intracellular AMP:ATP ratios [9]: increased
